Data published in ChEMBL document CHEMBL4052772, “Design, synthesis and biological evaluation of novel 4-phenoxyquinoline derivatives containing 3-oxo-3,4-dihydroquinoxaline moiety as c-Met kinase inhibitors” (Bioorg Med Chem, 2017).

Assays:
[1] = test system: NCI-H460; experiment: Antiproliferative activity against human H460 cells after 72 hrs by MTT assay; conditions: NCI-H460, 72 h
[2] = test system: U-87 MG; experiment: Antiproliferative activity against human U87MG cells after 72 hrs by MTT assay
[3] = test system: HT-29; experiment: cells; conditions: Homo sapiens, HT-29, 72 h
[4] = test system: A549; experiment: cells; conditions: Homo sapiens, A549, 72 h
Description: Antiproliferative activity against human A549 cells after 72 hrs by MTT assay

[5] = test system: MKN-45; experiment: cells; conditions: Homo sapiens, MKN-45, 72 h
Description: Antiproliferative activity against human MKN45 cells after 72 hrs by MTT assay

[6] = biological target: Hepatocyte growth factor receptor (Homo sapiens, UniProt P08581); experiment: Inhibition of c-Met (unknown origin) using poly (Glu, Tyr) 4:1 as substrate after 30 mins by HTRF assay
[7] = biological target: Mast/stem cell growth factor receptor Kit (Homo sapiens, UniProt P10721); experiment: Inhibition of c-Kit (unknown origin) using poly (Glu, Tyr) 4:1 as substrate after 30 mins by HTRF assay
[8] = biological target: Platelet-derived growth factor receptor alpha (Homo sapiens, UniProt P16234); experiment: Inhibition of PDGFRalpha (unknown origin) using poly (Glu, Tyr) 4:1 as substrate after 30 mins by HTRF assay
[9] = biological target: Macrophage-stimulating protein receptor (Homo sapiens, UniProt Q04912); experiment: Inhibition of Ron (unknown origin) using poly (Glu, Tyr) 4:1 as substrate after 30 mins by HTRF assay
[10] = biological target: Vascular endothelial growth factor receptor 2 (Homo sapiens, UniProt P35968); experiment: Inhibition of VEGFR2 (unknown origin) using poly (Glu, Tyr) 4:1 as substrate after 30 mins by HTRF assay
[11] = biological target: T1, Receptor-type tyrosine-protein kinase FLT3 (Homo sapiens, UniProt P36888); experiment: Inhibition of Flt3 (unknown origin) using poly (Glu, Tyr) 4:1 as substrate after 30 mins by HTRF assay
T1 sequence (P36888 whole entry): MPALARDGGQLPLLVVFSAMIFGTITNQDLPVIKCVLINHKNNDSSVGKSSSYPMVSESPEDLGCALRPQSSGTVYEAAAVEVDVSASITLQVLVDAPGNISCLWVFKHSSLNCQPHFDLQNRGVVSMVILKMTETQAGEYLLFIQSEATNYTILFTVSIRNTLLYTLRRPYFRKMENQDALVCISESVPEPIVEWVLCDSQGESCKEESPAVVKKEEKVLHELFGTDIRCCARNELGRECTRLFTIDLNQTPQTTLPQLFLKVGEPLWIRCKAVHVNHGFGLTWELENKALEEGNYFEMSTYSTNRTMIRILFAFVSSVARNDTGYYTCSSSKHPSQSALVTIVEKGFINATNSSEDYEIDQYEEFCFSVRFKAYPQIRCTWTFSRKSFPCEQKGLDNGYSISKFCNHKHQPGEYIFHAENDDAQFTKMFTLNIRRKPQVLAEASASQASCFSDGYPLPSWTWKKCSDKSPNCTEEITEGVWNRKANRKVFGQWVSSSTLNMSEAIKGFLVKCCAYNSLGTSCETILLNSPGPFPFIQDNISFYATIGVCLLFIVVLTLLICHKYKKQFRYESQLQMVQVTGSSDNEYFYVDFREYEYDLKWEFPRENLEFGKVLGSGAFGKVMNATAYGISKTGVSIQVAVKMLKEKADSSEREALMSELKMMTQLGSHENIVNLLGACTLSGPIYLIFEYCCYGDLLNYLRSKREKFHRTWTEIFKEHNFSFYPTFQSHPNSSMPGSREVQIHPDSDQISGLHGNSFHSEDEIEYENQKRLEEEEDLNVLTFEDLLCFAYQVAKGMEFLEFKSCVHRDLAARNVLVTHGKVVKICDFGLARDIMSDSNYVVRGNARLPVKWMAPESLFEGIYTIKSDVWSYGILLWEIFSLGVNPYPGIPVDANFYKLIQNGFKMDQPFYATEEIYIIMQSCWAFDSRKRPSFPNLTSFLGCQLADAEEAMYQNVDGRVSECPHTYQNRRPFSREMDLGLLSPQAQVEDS

[12] = biological target: Epidermal growth factor receptor (Homo sapiens, UniProt P00533); experiment: Inhibition of EGFR (unknown origin) using poly (Glu, Tyr) 4:1 as substrate after 30 mins by HTRF assay
[13] = biological target: ALK tyrosine kinase receptor (Homo sapiens, UniProt Q9UM73); experiment: Inhibition of ALK (unknown origin) using poly (Glu, Tyr) 4:1 as substrate after 30 mins by HTRF assay

Hepatocyte growth factor receptor, sequence (P08581 whole entry): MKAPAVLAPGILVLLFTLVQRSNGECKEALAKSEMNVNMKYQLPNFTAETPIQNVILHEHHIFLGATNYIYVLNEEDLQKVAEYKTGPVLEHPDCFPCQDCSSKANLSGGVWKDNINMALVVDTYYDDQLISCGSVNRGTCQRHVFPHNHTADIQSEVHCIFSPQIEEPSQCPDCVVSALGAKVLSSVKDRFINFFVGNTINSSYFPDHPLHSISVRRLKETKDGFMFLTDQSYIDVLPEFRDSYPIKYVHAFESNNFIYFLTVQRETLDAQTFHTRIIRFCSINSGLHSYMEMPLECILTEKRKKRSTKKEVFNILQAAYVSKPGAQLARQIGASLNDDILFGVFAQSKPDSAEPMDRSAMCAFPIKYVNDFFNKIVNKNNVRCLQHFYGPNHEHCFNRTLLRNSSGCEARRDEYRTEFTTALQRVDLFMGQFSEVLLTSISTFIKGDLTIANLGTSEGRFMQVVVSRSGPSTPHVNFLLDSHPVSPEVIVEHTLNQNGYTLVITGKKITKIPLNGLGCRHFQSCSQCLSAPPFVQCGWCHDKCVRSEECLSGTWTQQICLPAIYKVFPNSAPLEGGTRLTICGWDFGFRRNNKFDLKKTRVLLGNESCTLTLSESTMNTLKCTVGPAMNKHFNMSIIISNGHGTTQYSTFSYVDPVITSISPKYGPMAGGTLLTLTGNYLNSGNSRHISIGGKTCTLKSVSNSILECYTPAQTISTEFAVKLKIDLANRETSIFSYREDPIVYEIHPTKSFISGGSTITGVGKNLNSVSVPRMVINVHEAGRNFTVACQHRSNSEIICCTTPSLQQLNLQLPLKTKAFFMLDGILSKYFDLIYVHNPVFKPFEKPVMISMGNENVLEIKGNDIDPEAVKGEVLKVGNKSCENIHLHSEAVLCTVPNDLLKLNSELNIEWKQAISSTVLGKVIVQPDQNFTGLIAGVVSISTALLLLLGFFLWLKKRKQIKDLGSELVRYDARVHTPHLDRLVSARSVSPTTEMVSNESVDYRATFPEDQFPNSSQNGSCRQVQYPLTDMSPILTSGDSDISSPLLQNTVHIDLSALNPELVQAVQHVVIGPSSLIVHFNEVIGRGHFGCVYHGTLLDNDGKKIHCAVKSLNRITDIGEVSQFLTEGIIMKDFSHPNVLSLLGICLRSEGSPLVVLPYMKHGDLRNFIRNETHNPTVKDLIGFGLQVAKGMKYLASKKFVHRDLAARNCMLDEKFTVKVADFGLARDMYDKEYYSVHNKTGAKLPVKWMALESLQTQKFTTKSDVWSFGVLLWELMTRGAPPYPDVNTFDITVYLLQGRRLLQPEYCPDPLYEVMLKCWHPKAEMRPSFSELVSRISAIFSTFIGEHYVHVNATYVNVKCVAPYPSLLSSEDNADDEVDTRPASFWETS
Vascular endothelial growth factor receptor 2, sequence (P35968 whole entry): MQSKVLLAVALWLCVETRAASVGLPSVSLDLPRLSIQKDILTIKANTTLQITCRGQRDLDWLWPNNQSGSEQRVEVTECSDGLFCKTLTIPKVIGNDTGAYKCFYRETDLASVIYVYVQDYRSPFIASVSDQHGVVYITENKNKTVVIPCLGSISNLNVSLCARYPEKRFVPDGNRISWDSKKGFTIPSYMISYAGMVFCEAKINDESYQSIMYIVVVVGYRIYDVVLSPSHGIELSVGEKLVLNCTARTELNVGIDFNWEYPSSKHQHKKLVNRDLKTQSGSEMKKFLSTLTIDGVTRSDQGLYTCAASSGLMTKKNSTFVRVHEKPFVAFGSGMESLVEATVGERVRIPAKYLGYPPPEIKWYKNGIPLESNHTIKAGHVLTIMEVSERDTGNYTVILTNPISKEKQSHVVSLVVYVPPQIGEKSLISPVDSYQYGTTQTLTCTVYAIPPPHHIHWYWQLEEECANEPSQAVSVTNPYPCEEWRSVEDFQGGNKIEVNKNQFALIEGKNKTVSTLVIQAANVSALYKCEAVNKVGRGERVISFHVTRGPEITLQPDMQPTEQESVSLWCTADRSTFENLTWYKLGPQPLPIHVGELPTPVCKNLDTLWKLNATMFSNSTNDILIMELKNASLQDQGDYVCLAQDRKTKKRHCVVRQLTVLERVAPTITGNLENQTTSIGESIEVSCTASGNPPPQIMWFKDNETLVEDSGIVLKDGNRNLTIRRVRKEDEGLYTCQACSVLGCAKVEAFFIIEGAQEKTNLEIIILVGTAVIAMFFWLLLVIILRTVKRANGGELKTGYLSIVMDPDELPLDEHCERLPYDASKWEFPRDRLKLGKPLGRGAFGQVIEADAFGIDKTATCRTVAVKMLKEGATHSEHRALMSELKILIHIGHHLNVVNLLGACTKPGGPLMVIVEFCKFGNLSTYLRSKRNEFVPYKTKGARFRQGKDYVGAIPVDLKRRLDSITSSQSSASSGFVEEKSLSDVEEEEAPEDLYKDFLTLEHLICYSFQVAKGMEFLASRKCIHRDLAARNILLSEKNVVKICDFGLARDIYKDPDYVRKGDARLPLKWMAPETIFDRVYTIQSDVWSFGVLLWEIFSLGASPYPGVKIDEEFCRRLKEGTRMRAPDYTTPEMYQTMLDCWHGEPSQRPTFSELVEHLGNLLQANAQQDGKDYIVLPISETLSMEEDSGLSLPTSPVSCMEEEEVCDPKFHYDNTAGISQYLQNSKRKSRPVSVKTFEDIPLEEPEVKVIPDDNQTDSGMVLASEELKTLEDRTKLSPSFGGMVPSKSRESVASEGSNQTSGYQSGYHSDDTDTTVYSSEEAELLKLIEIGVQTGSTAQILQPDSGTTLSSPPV
Epidermal growth factor receptor, sequence (P00533 whole entry): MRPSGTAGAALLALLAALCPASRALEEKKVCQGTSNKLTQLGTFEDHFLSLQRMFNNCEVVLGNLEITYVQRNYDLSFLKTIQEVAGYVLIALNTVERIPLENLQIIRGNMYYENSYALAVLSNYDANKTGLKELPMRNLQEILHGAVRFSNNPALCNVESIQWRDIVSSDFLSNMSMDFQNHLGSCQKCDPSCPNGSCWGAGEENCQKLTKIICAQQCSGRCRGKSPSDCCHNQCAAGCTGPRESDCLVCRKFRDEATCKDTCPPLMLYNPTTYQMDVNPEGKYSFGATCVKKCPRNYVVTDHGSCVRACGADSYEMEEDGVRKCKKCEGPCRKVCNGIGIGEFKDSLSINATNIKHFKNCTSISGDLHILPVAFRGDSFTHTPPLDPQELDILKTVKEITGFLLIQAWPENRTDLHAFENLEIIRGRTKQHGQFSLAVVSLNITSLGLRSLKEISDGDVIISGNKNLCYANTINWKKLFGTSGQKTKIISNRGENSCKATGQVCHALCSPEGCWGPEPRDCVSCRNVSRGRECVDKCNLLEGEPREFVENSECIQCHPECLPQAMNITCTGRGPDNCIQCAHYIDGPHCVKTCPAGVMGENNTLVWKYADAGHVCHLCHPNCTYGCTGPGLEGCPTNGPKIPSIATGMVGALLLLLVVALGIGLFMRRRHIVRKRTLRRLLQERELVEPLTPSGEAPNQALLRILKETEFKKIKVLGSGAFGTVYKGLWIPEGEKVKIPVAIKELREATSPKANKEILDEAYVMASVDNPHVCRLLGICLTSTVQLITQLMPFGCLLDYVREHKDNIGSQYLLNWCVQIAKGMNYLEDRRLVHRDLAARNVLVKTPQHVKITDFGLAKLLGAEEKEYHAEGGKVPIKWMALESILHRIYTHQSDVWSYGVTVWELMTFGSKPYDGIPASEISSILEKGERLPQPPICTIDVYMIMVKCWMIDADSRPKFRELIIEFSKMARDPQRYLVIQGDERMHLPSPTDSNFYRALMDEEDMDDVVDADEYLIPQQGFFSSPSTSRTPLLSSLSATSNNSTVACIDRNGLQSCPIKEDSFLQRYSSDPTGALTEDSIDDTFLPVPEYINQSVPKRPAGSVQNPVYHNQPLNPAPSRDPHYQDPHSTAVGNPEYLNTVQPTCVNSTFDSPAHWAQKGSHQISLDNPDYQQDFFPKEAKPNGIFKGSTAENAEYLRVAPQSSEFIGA
Platelet-derived growth factor receptor alpha, sequence (P16234 whole entry): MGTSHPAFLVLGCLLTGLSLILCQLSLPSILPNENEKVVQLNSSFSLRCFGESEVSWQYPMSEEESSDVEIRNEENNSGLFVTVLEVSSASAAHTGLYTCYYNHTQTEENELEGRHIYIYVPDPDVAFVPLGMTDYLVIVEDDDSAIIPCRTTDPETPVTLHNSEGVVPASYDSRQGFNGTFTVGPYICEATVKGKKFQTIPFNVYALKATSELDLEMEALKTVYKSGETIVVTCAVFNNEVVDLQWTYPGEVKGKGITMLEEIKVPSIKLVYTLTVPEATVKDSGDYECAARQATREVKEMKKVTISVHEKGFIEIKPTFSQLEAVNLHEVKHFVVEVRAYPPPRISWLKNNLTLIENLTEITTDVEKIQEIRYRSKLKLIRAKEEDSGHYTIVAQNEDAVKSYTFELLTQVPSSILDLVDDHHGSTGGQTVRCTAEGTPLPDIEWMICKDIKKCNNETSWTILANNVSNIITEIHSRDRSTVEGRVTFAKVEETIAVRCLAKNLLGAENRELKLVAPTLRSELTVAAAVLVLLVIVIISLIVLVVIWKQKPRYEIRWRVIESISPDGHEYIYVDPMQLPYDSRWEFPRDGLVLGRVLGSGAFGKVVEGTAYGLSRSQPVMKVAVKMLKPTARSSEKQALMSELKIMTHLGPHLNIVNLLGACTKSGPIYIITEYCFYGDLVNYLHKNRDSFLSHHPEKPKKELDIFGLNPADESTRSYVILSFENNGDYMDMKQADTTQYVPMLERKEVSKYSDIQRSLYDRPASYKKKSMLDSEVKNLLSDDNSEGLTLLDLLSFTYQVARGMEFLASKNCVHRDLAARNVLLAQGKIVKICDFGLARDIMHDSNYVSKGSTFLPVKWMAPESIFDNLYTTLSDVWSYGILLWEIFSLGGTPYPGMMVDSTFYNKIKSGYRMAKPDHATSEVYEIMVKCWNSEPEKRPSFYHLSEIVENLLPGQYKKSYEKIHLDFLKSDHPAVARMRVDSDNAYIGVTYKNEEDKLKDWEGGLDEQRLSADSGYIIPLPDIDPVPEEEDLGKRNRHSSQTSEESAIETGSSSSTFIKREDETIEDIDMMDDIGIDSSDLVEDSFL

| IC50 [1] | IC50 [2] | IC50 [3] | IC50 [4] | IC50 [5] | IC50 [6] | IC50 [7] | IC50 [8] | IC50 [9] | IC50 [10] | IC50 [11] | IC50 [12] | IC50 [13] | SMILES |
| --- | --- | --- | --- | --- | --- | --- | --- | --- | --- | --- | --- | --- | --- |
| 640 nM | 5040 nM | 590 nM | 170 nM | 75 nM |  |  |  |  |  |  |  |  | COc1cc2c(Oc3ccc(NC(=O)c4nc5ccccc5n(-c5ccc(Cl)cc5Cl)c4=O)cc3F)ccnc2cc1OCCCN1CCOCC1 |
| 140 nM | 1500 nM | 150 nM | 50 nM | 25 nM | 3.23 nM |  |  |  |  |  |  |  | COc1cc2c(Oc3ccc(NC(=O)c4nc5ccccc5n(-c5ccccc5Cl)c4=O)cc3F)ccnc2cc1OCCCN1CCOCC1 |
| 400 nM | 1850 nM | 200 nM | 310 nM | 390 nM |  |  |  |  |  |  |  |  | COc1cc2c(Oc3ccc(NC(=O)c4nc5ccccc5n(-c5cccc(F)c5)c4=O)cc3F)ccnc2cc1OCCCN1CCOCC1 |
| 530 nM | 980 nM | 330 nM | 240 nM | 340 nM |  |  |  |  |  |  |  |  | COc1cc2c(Oc3ccc(NC(=O)c4nc5ccccc5n(-c5cccc(Cl)c5)c4=O)cc3F)ccnc2cc1OCCCN1CCOCC1 |
| 280 nM | 1780 nM | 190 nM | 220 nM | 560 nM |  |  |  |  |  |  |  |  | COc1cc2c(Oc3ccc(NC(=O)c4nc5ccccc5n(-c5ccccc5C(F)(F)F)c4=O)cc3F)ccnc2cc1OCCCN1CCOCC1 |
| 290 nM | 1220 nM | 200 nM | 330 nM | 260 nM |  |  |  |  |  |  |  |  | COc1cc2c(Oc3ccc(NC(=O)c4nc5ccccc5n(-c5ccc(OC(F)(F)F)cc5)c4=O)cc3F)ccnc2cc1OCCCN1CCOCC1 |
| 1850 nM | > 32000 nM | 690 nM | 1720 nM | 660 nM |  |  |  |  |  |  |  |  | COc1ccc(-n2c(=O)c(C(=O)Nc3ccc(Oc4ccnc5cc(OCCCN6CCOCC6)c(OC)cc45)c(F)c3)nc3ccccc32)cc1 |
|  |  |  |  |  | 0.9 nM | 2.45 nM | 19.1 nM | 82.6 nM | 152 nM | 269 nM | 981 nM | 2840 nM | COc1cc2c(Oc3ccc(NC(=O)c4nc5ccccc5n(-c5ccc(F)cc5)c4=O)cc3F)ccnc2cc1OCCCN1CCN(C)CC1 |
|  |  |  |  |  | 8.03 nM |  |  |  |  |  |  |  | COc1cc2c(Oc3ccc(NC(=O)c4nc5ccccc5n(-c5ccc(F)cc5)c4=O)cc3F)ccnc2cc1OCCCN1CCCCC1 |
| 280 nM | 1060 nM | 160 nM | 42 nM | 29 nM | 6.76 nM |  |  |  |  |  |  |  | COc1cc2c(Oc3ccc(NC(=O)c4nc5ccccc5n(-c5ccc(Cl)cc5)c4=O)cc3F)ccnc2cc1OCCCN1CCOCC1 |
| 2050 nM | 16200 nM | 1290 nM | 5110 nM | 860 nM |  |  |  |  |  |  |  |  | COc1ccc(-n2c(=O)c(C(=O)Nc3ccc(Oc4ccnc5cc(OCCCN6CCOCC6)c(OC)cc45)c(F)c3)nc3ccccc32)c(OC)c1 |
| 1120 nM | 4170 nM | 1030 nM | 2160 nM | 580 nM |  |  |  |  |  |  |  |  | COc1cc2c(Oc3ccc(NC(=O)c4nc5ccccc5n(-c5ccc(C)cc5)c4=O)cc3F)ccnc2cc1OCCCN1CCOCC1 |
|  |  |  |  |  | 13.1 nM |  |  |  |  |  |  |  | COc1cc2c(Oc3ccc(NC(=O)c4nc5ccccc5n(-c5ccccc5F)c4=O)cc3F)ccnc2cc1OCCCN1CCC(C)CC1 |
| 230 nM | 650 nM | 170 nM | 33 nM | 29 nM | 4.52 nM |  |  |  |  |  |  |  | COc1cc2c(Oc3ccc(NC(=O)c4nc5ccccc5n(-c5ccccc5F)c4=O)cc3F)ccnc2cc1OCCCN1CCOCC1 |
| 140 nM | 810 nM | 110 nM | 30 nM | 26 nM | 2.35 nM |  |  |  |  |  |  |  | COc1cc2c(Oc3ccc(NC(=O)c4nc5ccccc5n(-c5ccc(F)cc5)c4=O)cc3F)ccnc2cc1OCCCN1CCOCC1 |
| 1040 nM | 1720 nM | 200 nM | 410 nM | 82 nM |  |  |  |  |  |  |  |  | COc1cc2c(Oc3ccc(NC(=O)c4nc5ccccc5n(-c5ccccc5)c4=O)cc3F)ccnc2cc1OCCCN1CCOCC1 |
|  |  |  |  |  | 3.57 nM |  |  |  |  |  |  |  | COc1cc2c(Oc3ccc(NC(=O)c4nc5ccccc5n(-c5ccc(F)cc5)c4=O)cc3F)ccnc2cc1OCCCN1CCC(C)CC1 |
| 210 nM | 1170 nM | 170 nM | 320 nM | 110 nM |  |  |  |  |  |  |  |  | COc1cc2c(Oc3ccc(NC(=O)c4nc5ccccc5n(-c5ccc(Br)cc5)c4=O)cc3F)ccnc2cc1OCCCN1CCOCC1 |
